Reference: PubChem BioAssay AID1963872 (Molecular Pharmacology Branch, DTP, NCI, 2024)

Tested on: KRAS patient-derived spheroids with HUVEC/MSC, viability
Assay: Anticancer human tumor 519858-162-T-J1-PDC patient-derived colon adenocarcinoma cell line growth inhibition [KRAS2]
Settings: for IC50: curve of first compound; for viability, T/C: stronger effect = lower value
Summary of the method: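 KRAS-mutant tumor cells were grown as spheroids with HUVEC endothelial cells and human MSCs as stroma. Targeted agents were tested alone and with KRAS pathway inhibitors. Doses started at or near clinical Cmax, or 10 microM, descending half-log.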

[1] = second compound 0.1 µM, first compound 0.01 µM
[2] = second compound 0.1 µM, first compound 0.0316 µM
[3] = second compound 0.1 µM, first compound 0.1 µM
[4] = second compound 0.1 µM, first compound 0.316 µM
[5] = second compound 0.1 µM, first compound 1 µM
[6] = second compound 0.1 µM, first compound 3.16 µM
[7] = second compound 0.316 µM, first compound 0.01 µM
[8] = second compound 0.316 µM, first compound 0.0316 µM
[9] = second compound 0.316 µM, first compound 0.1 µM
[10] = second compound 0.316 µM, first compound 0.316 µM
[11] = second compound 0.316 µM, first compound 1 µM
[12] = second compound 0.316 µM, first compound 3.16 µM
[13] = second compound 1 µM, first compound 0.01 µM
[14] = second compound 1 µM, first compound 0.0316 µM
[15] = second compound 1 µM, first compound 0.1 µM
[16] = second compound 1 µM, first compound 0.316 µM
[17] = second compound 1 µM, first compound 1 µM
[18] = second compound 1 µM, first compound 3.16 µM
[19] = second compound 3.16 µM, first compound 0.01 µM
[20] = second compound 3.16 µM, first compound 0.0316 µM
[21] = second compound 3.16 µM, first compound 0.1 µM
[22] = second compound 3.16 µM, first compound 0.316 µM
[23] = second compound 3.16 µM, first compound 1 µM
[24] = second compound 3.16 µM, first compound 3.16 µM
[25] = second compound 10 µM, first compound 0.01 µM
[26] = second compound 10 µM, first compound 0.0316 µM
[27] = second compound 10 µM, first compound 0.1 µM
[28] = second compound 10 µM, first compound 0.316 µM
[29] = second compound 10 µM, first compound 1 µM
[30] = second compound 10 µM, first compound 3.16 µM
[31] = second compound 0.1 µM, first compound 10 µM
[32] = second compound 0.316 µM, first compound 10 µM
[33] = second compound 1 µM, first compound 10 µM
[34] = second compound 3.16 µM, first compound 10 µM
[35] = second compound 10 µM, first compound 10 µM
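Note: compound exposure lasted seven days before readout.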
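Throughout, for viability, T/C: 100% = DMSO vehicle control viability.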

SMILES	IC50 (second compound 0.1 µM) [nM]	IC50 (second compound 0.316 µM) [nM]	IC50 (second compound 1 µM) [nM]	IC50 (second compound 3.16 µM) [nM]	IC50 (second compound 10 µM) [nM]	viability, T/C [2] [%]	viability, T/C [3] [%]	viability, T/C [4] [%]	viability, T/C [5] [%]	viability, T/C [6] [%]	viability, T/C [8] [%]	viability, T/C [9] [%]	viability, T/C [10] [%]	viability, T/C [11] [%]	viability, T/C [12] [%]	viability, T/C [14] [%]	viability, T/C [15] [%]	viability, T/C [16] [%]	viability, T/C [17] [%]	viability, T/C [18] [%]	further results
CC1COCCN1c1cc(-c2ccnn2C)c2ccnc(-c3ccn[nH]3)c2n1 (stereo not given) + CNCc1ccccc1-c1csc(C(C)Nc2nc(C)nc3cc(OC)c(OC)cc23)c1	1760	1040	1430	568	< 10	90.3	62.7	82.5	59.9	39.8	62.8	83.2	68.6	48.7	28.4	89.8	95	79.7	58.8	30.6	viability, T/C [1]: 76.8%; viability, T/C [7]: 95%; viability, T/C [13]: 70.9%; viability, T/C [19]: 64.1%; viability, T/C [20]: 50.8%; viability, T/C [21]: 60%; viability, T/C [22]: 70.5%; viability, T/C [23]: 39%; viability, T/C [24]: 20.4%; viability, T/C [25]: 0.21%; viability, T/C [26]: 0.21%; viability, T/C [27]: 8.05%; viability, T/C [28]: 0.31%; viability, T/C [29]: 0.32%; viability, T/C [30]: 0.28%
CC1OCC2(CCN(c3cnc(Sc4ccnc(N)c4Cl)c(N)n3)CC2)C1N (stereo not given) + CNCc1ccccc1-c1csc(C(C)Nc2nc(C)nc3cc(OC)c(OC)cc23)c1	> 10000	> 10000	> 10000	98.2	< 31.6	97.1	99.2	85.4	59.3	54	80.6	92	68	60.8	69.7	72.9	83.5	77.3	50.3	35.3	viability, T/C [31]: 60.4%; viability, T/C [32]: 58.9%; viability, T/C [33]: 66%; viability, T/C [20]: 66.6%; viability, T/C [21]: 53.9%; viability, T/C [22]: 36.1%; viability, T/C [23]: 43.1%; viability, T/C [24]: 42.7%; viability, T/C [34]: 41.2%; viability, T/C [26]: 10.2%; viability, T/C [27]: 34.6%; viability, T/C [28]: 0.2%; viability, T/C [29]: 0.15%; viability, T/C [30]: 6.03%; viability, T/C [35]: 13.6%
CCNC(=O)CC1N=C(c2ccc(Cl)cc2)c2cc(OC)ccc2-n2c(C)nnc21 (stereo not given) + CNCc1ccccc1-c1csc(C(C)Nc2nc(C)nc3cc(OC)c(OC)cc23)c1	2250	1370	510	73.9	< 31.6	82.5	109	87.2	67.5	43.8	81.5	74.5	65.6	52.4	41.2	61.1	59	54.2	44	34.9	viability, T/C [31]: 19.8%; viability, T/C [32]: 25.6%; viability, T/C [33]: 24.2%; viability, T/C [20]: 51.9%; viability, T/C [21]: 54%; viability, T/C [22]: 37.5%; viability, T/C [23]: 29.1%; viability, T/C [24]: 23.9%; viability, T/C [34]: 9.53%; viability, T/C [26]: 0.36%; viability, T/C [27]: 1.18%; viability, T/C [28]: 0.49%; viability, T/C [29]: 0.46%; viability, T/C [30]: 0.69%; viability, T/C [35]: 0.69%
Cn1nccc1Nc1nccc(-c2cc3c(s2)C(C)(C)N(CCN2CCOCC2)C3=O)n1 + CNCc1ccccc1-c1csc(C(C)Nc2nc(C)nc3cc(OC)c(OC)cc23)c1	3240	4470	1090	< 31.6	< 31.6	102	90.2	74.2	63	55.7	90.3	77.5	68.2	78.5	49.2	79.5	71	74.3	50.6	31.9	viability, T/C [31]: 33.5%; viability, T/C [32]: 39.6%; viability, T/C [33]: 25.9%; viability, T/C [20]: 38.9%; viability, T/C [21]: 48%; viability, T/C [22]: 29.8%; viability, T/C [23]: 36.6%; viability, T/C [24]: 20.8%; viability, T/C [34]: 21.2%; viability, T/C [26]: 2.36%; viability, T/C [27]: 0.52%; viability, T/C [28]: 0.35%; viability, T/C [29]: 0.39%; viability, T/C [30]: 0.71%; viability, T/C [35]: 0.65%
CC(=O)OC12COC1CC(O)C1(C)C(=O)C(O)C3=C(C)C(OC(=O)C(O)C(NC(=O)OC(C)(C)C)c4ccccc4)CC(O)(C(OC(=O)c4ccccc4)C21)C3(C)C (stereo not given) + COc1cc2nc(C)nc(NC(C)c3cc(N)cc(C(F)(F)F)c3)c2cc1OC1CCOC1	> 3160	> 3160	> 3160	> 3160	> 3160	115	98.3	122	92	94.6	112	99	71.6	66.9	78.9	76.1	105	89.8	110	90.9	viability, T/C [1]: 123%; viability, T/C [7]: 99%; viability, T/C [13]: 91.3%; viability, T/C [19]: 72%; viability, T/C [20]: 112%; viability, T/C [21]: 76.4%; viability, T/C [22]: 79.7%; viability, T/C [23]: 56.1%; viability, T/C [24]: 82.3%; viability, T/C [25]: 112%; viability, T/C [26]: 97.4%; viability, T/C [27]: 65%; viability, T/C [28]: 62.7%; viability, T/C [29]: 66.5%; viability, T/C [30]: 96.8%
